Measured values published in patent US20240366813A1, “PEPTIDE-UREA DERIVATIVE, PHARMACEUTICAL COMPOSITION CONTAINING SAME AND APPLICATION THEREOF” (Bivision Pharmaceuticals, Inc., priority 0001, published 2024).

Tested on: PSMA-positive cells LNCap
Assay: Uptake of labeled compounds by PSMA-positive cells LNCap
Format: cell-based
Conditions: 37° C., 0.5 h
Experimental: LNCap cells (Shangcheng Beina Chuanglian Biotechnology Co., Ltd., Industrial Park, Chengguan Town, Shangcheng County, Xinyang City, Henan Province) were revived and passaged for expansion. After the cells were expanded to a sufficient amount, cells were seeded in a 24-well plate at a density of 1×10^4 cells/well. Uptake tests were performed when cells grew to 80%-90% confluence.
The above labeled compounds ^177Lu-E1, ^177Lu-E2, ^177Lu-E3, ^177Lu-E5, ^177Lu-E9, ^177Lu-E14 and ^177Lu-PSMA-617 were diluted with serum-free medium into 10000, 1000, 100, 10, 1, 0.1 and 0 nM. 1 mL of the diluted solution was added to a 24-well plate, and incubated at 37° C. for 0.5 h. The supernatant was discarded and the cells were washed 3 times with PBS. 250 μL of 1M NaOH solution was added to each well. The cells were pipetted until they were completely dissolved, and transferred to a scintillation vial. 250 μL of NaOH solution was added to each well again to wash the bottom of the well and transferred to a scintillation vial. 2 mL of scintillation fluid was added to each scintillation vial and shaken well. A liquid scintillation counter was used to detect radioactive counts in each vial.

O=C([O-])CN1CCN(CC(=O)[O-])CCN(CC(=O)N2CCc3cc(C(=O)NC(Cc4ccc5ccccc5c4)C(=O)NCCCCC(NC(=O)NC(CCC(=O)O)C(=O)O)C(=O)O)ccc3C2)CCN(CC(=O)[O-])CC1.[177Lu+3] (stereo not drawn) [^177Lu-E3]
uptake by LNCap cells (0.1 nM): 48 cpm | uptake by LNCap cells (1 nM): 95 cpm | uptake by LNCap cells (10 nM): 346 cpm | uptake by LNCap cells (100 nM): 555 cpm | uptake by LNCap cells (1000 nM): 903 cpm | uptake by LNCap cells (10000 nM): 3150 cpm
